“Also recorded” adds a separate entry of the source. Like-named read-outs stand apart in the source and are kept apart here.
Legend:
sPLA2 group I [1] = assay: 10-pyrene fluorescence enzyme assay, sPLA2 group I (Lineweaver-Burke / Michaelis-Menton); format: biochemical, Naja mossambica; conditions: for Km: without inhibitor 18.80; for Km / Vmax: 5 nM sPLA2, 10-pyrene 2-7 μM, nonlinear regression of Vo; for Vmax: without inhibitor 21.67; for reduction of Vo with varied enzyme concentration: sPLA2 2, 6, 10 nM, CHEC-9 0.1, 1, 10 nM
Description: (§1) Purified secreted phospholipase A2 group I from the venom of the Mozambique cobra (Naja mossambica) was obtained from Sigma. Blood was obtained from the trunk of 20 female Sprague Dawley rats (200–250 g) after decapitation, and by venipunture of 14 healthy adult humans of both sexes. Blood samples from 8 additional rats were collected following subcutaneous injections of 100 μg CHEC-9 or DMEM vehicle. These rats were placed in a standard rat restrainer during the collection period and the samples obtained via a tail nick. All specific procedures of this study were approved by both the Institutional Animal Care and Use Committee and by Institutional Review Board of Drexel University College of Medicine. Blood samples were treated with citrate-phosphate-dextrose anticoagulant (1:10, Sigma), and plasma prepared by centrifugation, before freezing at -80° until used in the enzyme assays. For the ex vivo studies, individual plasma samples were pooled from 3–7 rats or 3–5 humans.
(§2) Enzyme assays were conducted at ambient temperature (22–25°) using a Victor 3 fluorescent reader (Perkin Elmer, Nutley NJ). The substrate was 1-Palmitoyl-2-Pyrenedecanoyl Phosphatidylcholine ("10-pyrene", Caymen Chemical, Ann Arbor MI) a substrate for all calcium dependent PLA2s with the exception of cPLA2 and PAF-AH. The substrate (supplied in chloroform) was dried under a nitrogen stream, quickly dissolved in ethanol, and stored at -20° prior to use. Substrate solutions were prepared in reaction buffer consisting of 50 mM tris (pH = 7.4), 0.1 M NaCl, 2 mM CaCl2, 0.25% fatty acid-free albumin (Sigma) and the CHEC-9 peptide at the indicated concentrations. CHEC-9 ([…]) was synthesized by Celtek, (Nashville, TN), purified and cross-linked as described previously, and aliquots stored in tris buffer or DMEM vehicles at -80°. The 10-pyrene substrate forms phospholipids vesicles in aqueous solutions [13], and upon hydrolysis, releases 10-pyrenyldecanoic acid. This product is fluorescent in the presence of albumin and was measured at 350 nm excitation, 405 nm emission. Plasma samples were 20% final concentration in the reaction mixture, and all enzyme reactions were initiated with the addition of the substrate solution to the sPLA2 containing samples. Kinetic parameters including the properties of CHEC-9 were determined by measuring the initial velocities (Vo) of enzyme reactions (within 2 minutes of initiation). […] This rate is proportional to the concentration of active enzyme in the plasma if product formation during this period is linear with respect to time (see Fig. 6). In most experiments, relative fluorescent units (RFU) were converted to product concentration using a pyrenyldecanoic acid standard curve (Molecular Probes, Eugene, OR). […] Individual reactions were carried out in duplicate or triplicate and kinetic curves were produced using 5–6 substrate concentrations, with or without peptide, reacted simultaneously. […] Km and Vmax and r^2 were determined with regression software (Prism) from Graphpad (San Diego, CA).
(§3) The characteristics of CHEC-9 inhibition were determined using both classical characterization of inhibitor types, i.e., the direction of changes in Km and Vmax, and more recent reports that derive consistent relationships between the extent of enzyme inhibition and substrate concentration. […] We have repeated, combined, and rearranged some of their equations below in order to show the calculations used in the present experiments.
(§4) KiNR is the apparent inhibition constant based on inhibition degree and is independent of inhibitor classification. This value varies predictably with substrate concentration for different inhibitor types. It is defined as: […]

Human Plasma sPLA2 = assay: 10-pyrene fluorescence enzyme assay, human plasma sPLA2 (ex vivo); format: biochemical; conditions: for Vmax: without inhibitor 2.07; for Km: without inhibitor 66.52
Description: as §1, §2, §3, §4

rat plasma sPLA2 = assay: 10-pyrene fluorescence enzyme assay, rat plasma sPLA2 (ex vivo); format: biochemical, rat (Sprague Dawley)
Description: as §1
Enzyme assays were conducted at ambient temperature (22–25°) using a Victor 3 fluorescent reader (Perkin Elmer, Nutley NJ). The substrate was 1-Palmitoyl-2-Pyrenedecanoyl Phosphatidylcholine ("10-pyrene", Caymen Chemical, Ann Arbor MI) a substrate for all calcium dependent PLA2s with the exception of cPLA2 and PAF-AH. The substrate (supplied in chloroform) was dried under a nitrogen stream, quickly dissolved in ethanol, and stored at -20° prior to use. Substrate solutions were prepared in reaction buffer consisting of 50 mM tris (pH = 7.4), 0.1 M NaCl, 2 mM CaCl2, 0.25% fatty acid-free albumin (Sigma) and the CHEC-9 peptide at the indicated concentrations. CHEC-9 ([…]) was synthesized by Celtek, (Nashville, TN), purified and cross-linked as described previously, and aliquots stored in tris buffer or DMEM vehicles at -80°. The 10-pyrene substrate forms phospholipids vesicles in aqueous solutions [13], and upon hydrolysis, releases 10-pyrenyldecanoic acid. This product is fluorescent in the presence of albumin and was measured at 350 nm excitation, 405 nm emission. Plasma samples were 20% final concentration in the reaction mixture, and all enzyme reactions were initiated with the addition of the substrate solution to the sPLA2 containing samples. Kinetic parameters including the properties of CHEC-9 were determined by measuring the initial velocities (Vo) of enzyme reactions (within 2 minutes of initiation). […] Km and Vmax and r^2 were determined with regression software (Prism) from Graphpad (San Diego, CA).
The characteristics of CHEC-9 inhibition were determined using both classical characterization of inhibitor types, i.e., the direction of changes in Km and Vmax, and more recent reports that derive consistent relationships between the extent of enzyme inhibition and substrate concentration. […]

sPLA2 group I [2] = assay: native polyacrylamide gel electrophoresis, enzyme migration; set-up: species or system Naja mossambica; conditions: for sPLA2 band on native gel, with peptide and substrate: 26 μM sPLA2, 40 μM CHEC-9, 560 μM substrate, 2 mM CaCl2, pH 7.4, room temperature 30 min, repeated four times
Description: Polyacrylamide gradient gels (5–15%) were run with and without SDS or reducing agents using sPLA2 group I alone or after mixing the enzyme with different combinations of the components of the reaction mixture (or their solvents). Samples prepared for the native gels were 50 μl containing 26 μM sPLA2, 40 μM CHEC-9, 560 μM 1-Palmitoyl-2-Pyrenedecanoyl Phosphatidylcholine (substrate), and 2 mM CaCl2 in 20 mM tris buffer (pH = 7.4), incubated together at room temperature for 30 min. After incubation, the samples were evaporated to 20 μl. The samples were then mixed with sample buffer containing only glycerol and bromophenol blue in 0.1 M tris (pH = 6.8) and loaded onto the gels. Following electrophoresis, the gels were washed, fixed, and stained with silver reagent according to conventional methods. The native gel experiment, using different reactant combinations run side by side (Fig. 3), was repeated four times with the same result.

sPLA2 [3] = conditions: 100 μg CHEC-9 s.c.
Description: as §1, with “For the ex vivo studies, individual plasma samples were pooled from 3–7 rats or 3–5 humans.” left out
Enzyme assays were conducted at ambient temperature (22–25°) using a Victor 3 fluorescent reader (Perkin Elmer, Nutley NJ). […] This product is fluorescent in the presence of albumin and was measured at 350 nm excitation, 405 nm emission. […] Kinetic parameters including the properties of CHEC-9 were determined by measuring the initial velocities (Vo) of enzyme reactions (within 2 minutes of initiation). […] Km and Vmax and r^2 were determined with regression software (Prism) from Graphpad (San Diego, CA).

sPLA2 [4] = system: sPLA2
Description: as §2, §3

cerebral cortex lesions = system: cerebral cortex lesions; set-up: method as in PMID 15684658; conditions: rat, ref [6], cited from earlier work
[5] = CHEC-9 10.0 nM, 20% plasma, 10-pyrene 5–30 μM, pH 7.4, 22–25°
[6] = CHEC-9 50.0 nM, 20% plasma, 10-pyrene 5–30 μM, pH 7.4, 22–25°

Sequence: CHEASAAQC [CHEC-9, nonapeptide CHEC-9 (…), internal fragment of DSEP/Dermcidin/PIF, synthesized by Celtek, purified and cross-linked]
- KiNR (apparent inhibition constant) vs substrate concentration (sPLA2 group I [1]; 10-pyrene 2-7 μM, 5 nM sPLA2, CHEC-9 0.1, 1.0, 10 nM): varied inversely with the substrate concentration; also recorded: overall decline in this value with increasing substrate concentration for each peptide concentration
- Km (sPLA2 group I [1]; CHEC-9 0.1 nM, pH 7.4, 22–25°): 10.8 µM
- Vmax (sPLA2 group I [1]; CHEC-9 0.1 nM, pH 7.4, 22–25°): 11.54 nM/min/ng
- Km (sPLA2 group I [1]; CHEC-9 1.0 nM, pH 7.4, 22–25°): 3.4 µM
- Vmax (sPLA2 group I [1]; CHEC-9 1.0 nM, pH 7.4, 22–25°): 5.56 nM/min/ng
- Km (sPLA2 group I [1]; CHEC-9 10.0 nM, pH 7.4, 22–25°): 2.26 µM
- Vmax (sPLA2 group I [1]; CHEC-9 10.0 nM, pH 7.4, 22–25°): 4.04 nM/min/ng
- change of Vmax and Km (sPLA2 group I [1]; CHEC-9 0.1-10 nM): reduced both the Vmax and Km of the enzyme reaction
- effect of CHEC-9 below 10 nM on Vo at 2 nM or 6 nM sPLA2 (sPLA2 group I [1]; CHEC-9 lower than 10 nM, 2 nM or 6 nM sPLA2, 6 μM 10-pyrene): minimally effective or ineffective at 2 nM or 6 nM sPLA2
- effect of CHEC-9 below 10 nM on Vo at 10 nM sPLA2 (sPLA2 group I [1]; CHEC-9 lower than 10 nM, 10 nM sPLA2, 6 μM 10-pyrene): produced consistent reductions in reaction velocity when used with 10 nM enzyme
- Ki (sPLA2 group I [1]; Group I sPLA2, uncompetitive, Ki = KiNR/(1+(Km/[S])), pH 7.4, 22–25°): 4.02 ± 1.56 nM
- effect on Vo at lowest substrate concentrations (sPLA2 group I [1]; lowest substrate concentrations): minimally effective, ineffective, or even potentiated Vo
- velocity of the enzyme reaction (Vo) (sPLA2 group I [1]; nanomolar CHEC-9, substrate one-half Km or less): reduced by nanomolar concentrations of CHEC-9
- reduction of Vo with varied enzyme concentration (sPLA2 group I [1]; 6 μM 10-pyrene): maximal reductions of Vo occurred at 10 nM sPLA2
- reduction of Vo with varied enzyme concentration (sPLA2 group I [1]; 6 μM 10-pyrene, listed as peptide): most effective at the highest concentration of sPLA2, and showed declining efficacy at the lower enzyme concentrations
- type of inhibition, sPLA2 group I (sPLA2 group I [1]; substrate at one-half Km or less): most consistent with an uncompetitive (or anti-competitive) inhibitor of sPLA2 group I
- type of inhibition, human plasma (Human Plasma sPLA2; 20% plasma, 10-pyrene 5–30 μM): consistent with the properties of an uncompetitive inhibitor
- Vmax (Human Plasma sPLA2; [5]): 1.42 μM/min/ml
- Km (Human Plasma sPLA2; [5]): 40.8 µM
- Vmax (Human Plasma sPLA2; [6]): 0.973 μM/min/ml
- Km (Human Plasma sPLA2; [6]): 24.1 µM
- change of Km and Vmax, human plasma (Human Plasma sPLA2; CHEC-9 10, 50 nM, 20% plasma): Km and Vmax of plasma samples were both reduced by CHEC-9
- Ki (Human Plasma sPLA2; Human plasma sPLA2, 20% plasma, uncompetitive, Ki = KiNR/(1+(Km/[S])), pH 7.4, 22–25°): 62 ± 13.2 nM
- effect on enzyme activity at lowest substrate concentrations, human plasma (Human Plasma sPLA2; CHEC-9 10, 50 nM): less effective or even exaggerated the reaction at the lower substrate concentrations
- effect on enzyme activity at lowest substrate concentrations, human plasma (Human Plasma sPLA2; CHEC-9 10, 50 nM, listed as peptide): exaggerated enzyme activity in human plasma at the lowest substrate concentrations used
- inhibition with increased substrate concentrations, rat plasma (rat plasma sPLA2; 25 nM CHEC-9, 20% plasma, increased substrate, mean of three reactions): this delay of the inhibition is not detected
- inhibition at very low substrate concentrations, rat plasma (rat plasma sPLA2; 25 nM CHEC-9, 20% plasma, very low substrate, mean of three reactions): delayed inhibition at the lower substrate concentrations
- inhibition at lower substrate concentrations, rat plasma (rat plasma sPLA2; lower substrate concentrations, product formation relatively stable): inhibition by CHEC-9 was readily observed
- effect at high substrate concentrations (substrate inhibition), rat plasma (rat plasma sPLA2; substrate > 25 μM): would sometimes reverse this inhibitory effect
- sPLA2 band on native gel, with peptide and substrate (sPLA2 group I [2]): absent or at least dramatically reduced
- sPLA2 band on native gel, with peptide and substrate (sPLA2 group I [2]; listed as peptide): disappeared or was markedly attenuated
- sPLA2 band on native gel, peptide alone (sPLA2 group I [2]; 26 μM sPLA2, 40 μM CHEC-9, no substrate, pH 7.4, room temperature 30 min): The same band appeared
- level of active sPLA2 vs pre-injection (sPLA2 [3]; restrained rats, n = 4, on average): holding the level of active enzyme, on average, near pre-injection values
- significance of sPLA2 reduction vs vehicle (sPLA2 [3]; p < 0.05 by Mann Whitney test, n = 4 rats per group): significant differences at 30 and 60 minutes
- specificity (sPLA2 [4]; plasma and venom-derived sPLA2): broad specificity
- Ki (sPLA2 [4]; read-out: Ki (individual experiments), individual experiments repeated 5 or more times, pH 7.4, 22–25°): < 100 nM
- Ki (sPLA2 [4]; read-out: Ki values (all cases), venom-derived sPLA2 group I and plasma of rats and humans): < 100 nM
- type of inhibition (all enzyme sources) (sPLA2 [4]; venom-derived sPLA2 group I, plasma of rats and humans): uncompetitive (or anti-competitive) enzyme inhibitor
- duration of anti-inflammatory and neuron survival effects (cerebral cortex lesions; a subcutaneous injection after cerebral cortex lesions): at least 4 days
- anti-inflammatory and neuron survival effects (cerebral cortex lesions; subcutaneous injection after cerebral cortex lesions): inhibit neuron death and aspects of the inflammatory response; also recorded: anti-inflammatory and neuron survival effects
